{
  "source": "ChEMBL document CHEMBL1201862",
  "about": "“PubChem BioAssay data set” (2004)",
  "key": {"H4 [1]": {"test_system": "H4", "test": "inhibitors of control reporter signal in H4 cells – cell-based, plate reader, dry powder samples, counter-screen for prion reporter project, dose response (AID 540255)", "format": "functional", "settings": "Homo sapiens"}, "[2]": {"test": "Shn3 3'UTR reporter signal decrease – cell-based, Clone20 osteoblasts, firefly luciferase, cherry-pick, set 2, Schnurri-3 inhibitor project, dose response (AID 720490);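 further: actives lower the luminescence signal as inhibitors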", "format": "functional"}, "[3]": {"test": "luciferase reporter signal suppression in cells – H4 neuroglioma cells, luminescence, dose response (AID 1990)", "format": "functional, cell-based"}, "[4]": {"test": "reduction of Shn3 3'UTR-driven luciferase in osteoblasts – cell-based, Clone20 osteoblasts, firefly luciferase, cherry-picked, dose response (AID 624132)", "format": "functional"}, "[5]": {"test": "luciferase reporter signal reduction – luminescence, H4-C neuroglioblastoma cells, dose response (AID 2458);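 further: H4 neuroglioblastoma cells stably carrying a luciferase reporter gene fusion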", "format": "functional, cell-based"}, "cells": {"test": "cells", "format": "functional, cell-based"}, "[6]": {"target": "Luciferin 4-monooxygenase (Photinus pyralis, UniProt P08659)", "sequence (P08659 whole entry)": "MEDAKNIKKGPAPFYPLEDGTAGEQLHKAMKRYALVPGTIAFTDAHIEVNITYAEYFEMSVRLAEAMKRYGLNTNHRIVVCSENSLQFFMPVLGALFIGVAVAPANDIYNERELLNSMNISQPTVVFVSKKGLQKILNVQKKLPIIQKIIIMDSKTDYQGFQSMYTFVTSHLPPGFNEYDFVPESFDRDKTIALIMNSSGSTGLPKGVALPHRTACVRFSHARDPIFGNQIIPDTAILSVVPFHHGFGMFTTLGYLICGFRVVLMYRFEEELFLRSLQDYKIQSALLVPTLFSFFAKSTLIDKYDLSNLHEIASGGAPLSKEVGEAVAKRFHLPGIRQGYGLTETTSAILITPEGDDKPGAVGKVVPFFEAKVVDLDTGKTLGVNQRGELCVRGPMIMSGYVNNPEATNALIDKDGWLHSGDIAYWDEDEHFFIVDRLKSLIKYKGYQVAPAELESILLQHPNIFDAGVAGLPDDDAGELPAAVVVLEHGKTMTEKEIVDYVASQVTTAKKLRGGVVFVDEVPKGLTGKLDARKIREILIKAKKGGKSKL", "test": "inhibition of purified Photinus pyralis luciferase – biochemical, dry powder samples, plate reader, dose response (AID 588451)"}, "[7]": {"target": "T1, Nucleotide-binding oligomerization domain-containing protein 1 (Homo sapiens, UniProt Q9Y239)", "T1 sequence (Q9Y239 whole entry)": "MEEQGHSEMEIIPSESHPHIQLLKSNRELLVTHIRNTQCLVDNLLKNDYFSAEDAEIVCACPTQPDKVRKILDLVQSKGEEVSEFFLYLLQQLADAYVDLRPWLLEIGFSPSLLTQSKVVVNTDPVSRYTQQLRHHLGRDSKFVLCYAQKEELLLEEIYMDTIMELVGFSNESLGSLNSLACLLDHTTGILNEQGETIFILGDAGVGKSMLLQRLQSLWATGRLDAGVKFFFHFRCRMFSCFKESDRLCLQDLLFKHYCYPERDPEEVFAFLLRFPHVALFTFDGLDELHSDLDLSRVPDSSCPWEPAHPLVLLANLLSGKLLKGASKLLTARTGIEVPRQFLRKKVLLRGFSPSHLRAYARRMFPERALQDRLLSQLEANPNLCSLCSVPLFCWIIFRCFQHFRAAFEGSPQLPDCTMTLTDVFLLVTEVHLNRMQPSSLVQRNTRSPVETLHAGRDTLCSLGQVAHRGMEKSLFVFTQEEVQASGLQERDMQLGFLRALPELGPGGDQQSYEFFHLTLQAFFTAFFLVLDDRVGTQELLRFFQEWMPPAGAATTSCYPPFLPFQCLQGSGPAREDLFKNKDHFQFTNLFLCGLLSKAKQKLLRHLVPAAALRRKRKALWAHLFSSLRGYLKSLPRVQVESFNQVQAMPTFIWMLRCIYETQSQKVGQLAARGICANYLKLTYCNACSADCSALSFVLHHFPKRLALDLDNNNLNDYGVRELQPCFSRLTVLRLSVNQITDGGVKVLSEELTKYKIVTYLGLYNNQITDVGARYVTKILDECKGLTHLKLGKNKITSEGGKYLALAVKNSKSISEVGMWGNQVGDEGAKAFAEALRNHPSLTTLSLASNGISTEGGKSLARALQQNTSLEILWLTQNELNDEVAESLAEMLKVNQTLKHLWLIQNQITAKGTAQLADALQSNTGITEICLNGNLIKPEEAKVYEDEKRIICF", "test": "blockers of NOD1 pathway activity – revised, SAR follow-up (AID 2333)", "format": "functional"}, "[8]": {"test": "Luminescence Cell-Based Dose Response HTS to Identify Inhibitors of 5'UTR Stem-Loop Driven Prion Protein mRNA Translation in H4 Neuroglioblastoma Cells. [Related pubchem assays: 1827 (Project Summary), 1813 (Primary HTS)]", "format": "functional"}, "Tumor necrosis factor": {"target": "Tumor necrosis factor (Homo sapiens, UniProt P01375)", "sequence (P01375 whole entry)": "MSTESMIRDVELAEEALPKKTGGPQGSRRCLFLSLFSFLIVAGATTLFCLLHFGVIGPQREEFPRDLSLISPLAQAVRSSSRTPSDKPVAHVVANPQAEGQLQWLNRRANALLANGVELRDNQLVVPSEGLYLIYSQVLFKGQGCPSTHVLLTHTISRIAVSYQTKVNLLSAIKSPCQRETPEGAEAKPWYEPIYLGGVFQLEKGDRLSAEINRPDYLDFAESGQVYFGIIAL", "test": "analog potency on TNFa NF-kB signaling – cell-based, revised, SAR follow-up (AID 2337)", "format": "functional"}, "H4 [9]": {"test_system": "H4", "test": "Amyloid Precursor 5' UTR neuroblastoma cell reporter line Measured in Cell-Based System Using Plate Reader - 2078-04_Inhibitor_Dose_DryPowder_Activity. [Related pubchem assays (depositor defined):AID488894]", "format": "functional", "settings": "Homo sapiens"}, "H4 [10]": {"test_system": "H4", "test": "Inhibitors of Prion Protein 5' UTR mRNA Measured in Cell-Based System Using Plate Reader - 2078-01_Inhibitor_Dose_DryPowder_Activity. [Related pubchem assays (depositor defined):AID488894]", "format": "functional", "settings": "Homo sapiens"}, "[11]": {"test": "alpha-synuclein stem-loop luciferase translation blockers – H4 neuroglioma cells, luminescence, confirmation (AID 1988)", "format": "functional, cell-based"}, "HEK293": {"test_system": "HEK293", "test": "cells", "settings": "Homo sapiens"}, "[12]": {"target": "T2, Heat shock factor protein 1 (Mus musculus, UniProt P38532)", "T2 sequence (P38532 whole entry)": "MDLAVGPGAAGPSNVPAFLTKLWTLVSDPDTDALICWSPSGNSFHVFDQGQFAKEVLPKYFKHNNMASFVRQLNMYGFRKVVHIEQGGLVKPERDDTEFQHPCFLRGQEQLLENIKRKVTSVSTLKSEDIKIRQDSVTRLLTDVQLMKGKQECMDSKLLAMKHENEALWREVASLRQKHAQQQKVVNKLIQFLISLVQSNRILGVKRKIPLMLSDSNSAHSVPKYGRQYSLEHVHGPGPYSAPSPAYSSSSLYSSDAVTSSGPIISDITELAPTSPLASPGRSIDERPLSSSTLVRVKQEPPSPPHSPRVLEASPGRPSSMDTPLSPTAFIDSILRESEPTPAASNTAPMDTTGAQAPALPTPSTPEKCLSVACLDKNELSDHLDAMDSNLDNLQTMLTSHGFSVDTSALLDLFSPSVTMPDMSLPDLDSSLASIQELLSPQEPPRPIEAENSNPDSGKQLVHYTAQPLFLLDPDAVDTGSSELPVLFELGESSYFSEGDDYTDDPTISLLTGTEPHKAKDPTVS", "test": "decrease of HSF1-responsive luciferase luminescence – cell-based, NIH3T3, dose retest, confirmation (AID 2382);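 further: NIH3T3 fibroblasts with HSF1-driven luciferase reporter stressed by proteasome inhibitor MG132; luminescence from HSF1-driven luciferase expression after 8 hours of MG132 stress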", "format": "functional"}, "[13]": {"test": "Luminescence-based counterscreen assay for KLF5 inhibitors: dose response cell-based high throughput screening assay to identify cytotoxic compounds using the IEC-6 intestinal epithelial cell line. [Related pubchem assays: 1700 (Primary screen.), 1834 (Confirmation screen.), 1858 (Summary AID.), 1905 (Counterscreen.)]", "format": "functional"}, "[14]": {"test": "alpha-synuclein stem-loop translation blockers – luminescence, H4 neuroglioblastoma cells, dose confirmation, confirmation (AID 2454)", "format": "functional, cell-based"}, "[15]": {"target": "Dual specificity protein phosphatase 3 (Homo sapiens, UniProt P51452)", "sequence (P51452 whole entry)": "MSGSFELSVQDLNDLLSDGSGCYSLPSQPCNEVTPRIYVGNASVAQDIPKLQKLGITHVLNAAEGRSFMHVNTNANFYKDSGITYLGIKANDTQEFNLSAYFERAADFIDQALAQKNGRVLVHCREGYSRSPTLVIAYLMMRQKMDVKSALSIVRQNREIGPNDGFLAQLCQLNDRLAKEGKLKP", "test": "VHR phosphatase inhibition, dose response, selectivity assay for STEP inhibitor project, biochemical (AID 602374)", "format": "functional", "settings": "read-out: IC50_Mean"}, "ORF 73": {"target": "ORF 73 (Human herpesvirus 8, UniProt O40947)", "sequence (O40947 whole entry)": "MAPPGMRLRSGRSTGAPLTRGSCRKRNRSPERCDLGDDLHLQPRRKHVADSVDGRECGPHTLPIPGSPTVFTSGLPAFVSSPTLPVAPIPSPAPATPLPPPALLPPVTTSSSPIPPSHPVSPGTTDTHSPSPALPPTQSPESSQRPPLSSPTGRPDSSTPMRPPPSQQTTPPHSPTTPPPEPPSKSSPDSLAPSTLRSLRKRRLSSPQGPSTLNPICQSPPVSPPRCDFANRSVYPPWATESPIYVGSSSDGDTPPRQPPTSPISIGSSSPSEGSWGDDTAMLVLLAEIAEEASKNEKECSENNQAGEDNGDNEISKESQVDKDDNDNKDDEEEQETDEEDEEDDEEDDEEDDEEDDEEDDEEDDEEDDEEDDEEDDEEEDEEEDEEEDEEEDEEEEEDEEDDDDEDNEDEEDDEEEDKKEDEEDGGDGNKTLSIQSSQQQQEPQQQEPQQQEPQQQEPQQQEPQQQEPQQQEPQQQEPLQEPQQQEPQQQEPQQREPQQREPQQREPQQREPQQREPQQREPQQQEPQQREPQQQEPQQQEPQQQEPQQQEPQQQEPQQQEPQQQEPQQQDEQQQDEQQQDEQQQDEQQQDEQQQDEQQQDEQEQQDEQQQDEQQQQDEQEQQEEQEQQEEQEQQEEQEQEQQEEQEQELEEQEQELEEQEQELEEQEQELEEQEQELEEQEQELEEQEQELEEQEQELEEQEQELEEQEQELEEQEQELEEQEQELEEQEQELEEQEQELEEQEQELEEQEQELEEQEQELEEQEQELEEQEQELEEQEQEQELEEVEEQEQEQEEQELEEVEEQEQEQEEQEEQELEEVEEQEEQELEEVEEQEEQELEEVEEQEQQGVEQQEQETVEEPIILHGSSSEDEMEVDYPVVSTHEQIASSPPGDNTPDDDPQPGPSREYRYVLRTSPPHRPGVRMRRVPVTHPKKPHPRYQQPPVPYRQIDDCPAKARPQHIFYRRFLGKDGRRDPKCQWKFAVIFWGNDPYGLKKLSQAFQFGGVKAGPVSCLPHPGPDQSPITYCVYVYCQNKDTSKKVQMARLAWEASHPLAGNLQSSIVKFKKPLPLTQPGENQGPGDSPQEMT", "test": "KSHV LANA DNA-binding disruption – biochemical, fluorescence polarization, cherry-picked samples, dose response (AID 504725);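 further: fluorescence polarization of a labeled DNA duplex reporting LANA DNA binding; potency is for inhibitors that block LANA binding to the DNA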", "parameters": "species or system Human gammaherpesvirus 8"}, "[16]": {"target": "Tyrosine-protein phosphatase non-receptor type 5 (Homo sapiens, UniProt P54829)", "sequence (P54829 whole entry)": "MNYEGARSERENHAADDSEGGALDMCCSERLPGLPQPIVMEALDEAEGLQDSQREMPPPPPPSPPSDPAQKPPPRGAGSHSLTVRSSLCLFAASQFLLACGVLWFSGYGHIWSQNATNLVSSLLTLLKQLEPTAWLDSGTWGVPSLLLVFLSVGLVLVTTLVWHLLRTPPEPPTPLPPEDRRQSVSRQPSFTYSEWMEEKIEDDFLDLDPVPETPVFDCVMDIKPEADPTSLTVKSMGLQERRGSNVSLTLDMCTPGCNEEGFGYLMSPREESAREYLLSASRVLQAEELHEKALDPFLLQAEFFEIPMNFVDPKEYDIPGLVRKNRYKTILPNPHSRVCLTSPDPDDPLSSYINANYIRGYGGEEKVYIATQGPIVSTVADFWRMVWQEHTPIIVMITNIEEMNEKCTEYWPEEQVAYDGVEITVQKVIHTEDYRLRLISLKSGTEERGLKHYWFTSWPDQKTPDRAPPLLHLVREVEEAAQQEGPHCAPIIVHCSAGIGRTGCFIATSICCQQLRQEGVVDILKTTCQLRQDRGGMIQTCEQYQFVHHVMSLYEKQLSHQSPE", "test": "PTPN5 enzyme inhibition – biochemical, fluorescence intensity, uHTS hits, confirmation (AID 602372)", "format": "functional", "settings": "read-out: IC50_Mean"}, "Vero": {"test_system": "Vero", "test": "viability of Vero cells under compound – cytotoxicity control for flavivirus capping enzyme inhibitors (AID 588742)", "format": "functional", "settings": "Chlorocebus sabaeus"}, "Genome polyprotein": {"target": "Genome polyprotein (dengue virus type 2, UniProt P29990)", "sequence (P29990 2492-3391 limits assumed)": "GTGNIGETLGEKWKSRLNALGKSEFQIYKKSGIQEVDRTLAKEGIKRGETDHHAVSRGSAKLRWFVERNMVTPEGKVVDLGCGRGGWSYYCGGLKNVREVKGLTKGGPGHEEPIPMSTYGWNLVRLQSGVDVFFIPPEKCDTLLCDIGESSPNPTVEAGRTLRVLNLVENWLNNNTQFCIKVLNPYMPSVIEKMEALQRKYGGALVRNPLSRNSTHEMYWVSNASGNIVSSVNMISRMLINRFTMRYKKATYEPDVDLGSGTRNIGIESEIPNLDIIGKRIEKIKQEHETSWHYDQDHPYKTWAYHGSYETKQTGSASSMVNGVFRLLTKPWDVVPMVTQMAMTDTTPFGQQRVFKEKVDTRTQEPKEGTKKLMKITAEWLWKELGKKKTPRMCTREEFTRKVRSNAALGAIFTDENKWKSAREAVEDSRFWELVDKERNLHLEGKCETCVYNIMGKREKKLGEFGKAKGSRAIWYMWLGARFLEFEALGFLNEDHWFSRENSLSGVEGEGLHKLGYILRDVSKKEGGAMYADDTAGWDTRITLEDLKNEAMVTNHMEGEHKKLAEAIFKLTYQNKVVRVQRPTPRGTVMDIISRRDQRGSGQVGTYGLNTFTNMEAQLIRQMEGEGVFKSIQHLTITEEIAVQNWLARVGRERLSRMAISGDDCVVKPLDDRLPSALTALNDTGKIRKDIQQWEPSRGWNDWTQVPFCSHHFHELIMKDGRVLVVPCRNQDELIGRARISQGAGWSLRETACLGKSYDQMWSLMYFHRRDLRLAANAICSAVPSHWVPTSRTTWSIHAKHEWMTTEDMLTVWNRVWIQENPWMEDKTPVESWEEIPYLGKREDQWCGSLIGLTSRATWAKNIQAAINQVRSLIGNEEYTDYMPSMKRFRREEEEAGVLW", "test": "flavivirus cap methylation enzyme inhibition – biochemical, confirmation dose response, primary screen (AID 588689)", "format": "functional"}, "HeLa": {"test_system": "HeLa", "test": "viability loss in HeLa cells – cell-based, 24 h, cherry-picked samples, cytotoxicity control, dose response (AID 504726)", "format": "functional", "settings": "Homo sapiens"}, "[17]": {"target": "Tyrosine-protein phosphatase non-receptor type 11 (Homo sapiens, UniProt Q06124)", "sequence (Q06124 whole entry)": "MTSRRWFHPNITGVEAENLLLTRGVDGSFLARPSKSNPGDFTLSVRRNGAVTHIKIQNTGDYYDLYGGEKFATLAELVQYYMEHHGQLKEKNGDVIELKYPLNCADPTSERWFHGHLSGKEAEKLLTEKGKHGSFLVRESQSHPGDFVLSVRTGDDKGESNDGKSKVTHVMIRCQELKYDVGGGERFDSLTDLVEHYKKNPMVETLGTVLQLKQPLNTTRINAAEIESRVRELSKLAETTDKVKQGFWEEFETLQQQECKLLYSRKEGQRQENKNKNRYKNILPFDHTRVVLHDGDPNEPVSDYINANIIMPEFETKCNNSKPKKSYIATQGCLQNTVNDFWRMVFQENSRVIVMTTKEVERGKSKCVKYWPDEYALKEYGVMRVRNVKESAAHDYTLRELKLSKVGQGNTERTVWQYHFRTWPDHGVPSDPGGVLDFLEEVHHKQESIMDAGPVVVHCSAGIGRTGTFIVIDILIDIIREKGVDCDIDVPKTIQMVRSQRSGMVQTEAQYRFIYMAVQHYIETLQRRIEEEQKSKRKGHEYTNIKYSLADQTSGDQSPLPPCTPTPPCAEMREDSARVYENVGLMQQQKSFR", "test": "PTPN11 enzyme inhibitors – biochemical, selectivity assay for STEP inhibitor project, dose response (AID 602367)", "format": "functional", "settings": "read-out: IC50_Mean"}, "Streptococcus [18]": {"test_system": "Streptococcus", "test": "GAS UMAA2166 growth inhibition – luminescence, BacTiterGlo, counter-screen for streptokinase expression inhibitor project, dose response (AID 1915)", "format": "functional, organism-based"}, "Streptococcus [19]": {"test_system": "Streptococcus", "test": "Luminescence Microorganism-Based Dose Response Follow up to Identify Compounds Cytotoxic to Streptococcus. [Related pubchem assays: 1677 (Project Summary), 1915, 1914, 1902 (Retest at Dose), 1900 (Counter Screen), 1662 (Primary HTS)]", "format": "functional, organism-based"}, "[20]": {"test_system": "Streptococcus sp. 'group A'", "test": "Streptococcus pyogenes SK(-)GAS viability under kanamycin – luminescence, BacTiterGlo, confirmation, counter-screen for streptokinase expression inhibitor project, dose response (AID 1900)", "format": "functional, organism-based"}, "Streptokinase A": {"target": "T3, Streptokinase A (Streptococcus pyogenes serotype M1, UniProt P10520)", "T3 sequence (P10520 whole entry)": "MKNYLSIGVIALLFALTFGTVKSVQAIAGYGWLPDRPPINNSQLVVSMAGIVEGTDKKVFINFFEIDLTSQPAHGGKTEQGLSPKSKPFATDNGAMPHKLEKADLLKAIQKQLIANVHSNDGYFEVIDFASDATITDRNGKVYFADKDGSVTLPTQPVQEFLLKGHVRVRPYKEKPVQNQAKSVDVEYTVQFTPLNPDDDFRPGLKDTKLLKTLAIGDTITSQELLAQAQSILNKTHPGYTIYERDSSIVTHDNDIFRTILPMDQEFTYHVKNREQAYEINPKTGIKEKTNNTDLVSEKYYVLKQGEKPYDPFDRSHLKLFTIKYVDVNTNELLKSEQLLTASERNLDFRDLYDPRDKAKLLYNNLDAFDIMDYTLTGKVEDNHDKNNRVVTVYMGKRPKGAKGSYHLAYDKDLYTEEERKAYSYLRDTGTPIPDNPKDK", "test": "viability-normalized secreted streptokinase activity reduction – plasminogen activation absorbance, OD405, dose response (AID 1914)", "format": "functional, Streptococcus pyogenes M1 GAS"}, "[21]": {"target": "Scavenger receptor class B member 1 (Mus musculus, UniProt Q61009)", "sequence (Q61009 whole entry)": "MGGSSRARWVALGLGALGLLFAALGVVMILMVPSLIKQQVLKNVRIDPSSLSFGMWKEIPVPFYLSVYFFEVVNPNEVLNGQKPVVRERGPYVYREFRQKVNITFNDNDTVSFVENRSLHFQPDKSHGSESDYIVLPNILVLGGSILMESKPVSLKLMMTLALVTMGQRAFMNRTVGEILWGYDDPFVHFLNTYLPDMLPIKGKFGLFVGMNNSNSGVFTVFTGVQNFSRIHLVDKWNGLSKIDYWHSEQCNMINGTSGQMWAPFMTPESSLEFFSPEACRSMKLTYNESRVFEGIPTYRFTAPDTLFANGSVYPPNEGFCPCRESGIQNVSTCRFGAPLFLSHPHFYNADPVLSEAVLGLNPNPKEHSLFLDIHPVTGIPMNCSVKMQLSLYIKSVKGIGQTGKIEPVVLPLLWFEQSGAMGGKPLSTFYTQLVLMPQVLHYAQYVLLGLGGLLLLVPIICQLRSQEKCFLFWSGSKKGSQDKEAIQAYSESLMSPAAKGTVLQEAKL", "test": "mouse SR-BI DiI-HDL uptake blockers – ldlA[mSR-BI] cells, fluorescence, cherry pick, dose response (AID 493194);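 further: cellular uptake of fluorescent DiI-labeled HDL measured as cell fluorescence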", "format": "functional, cell-based"}},
  "note": "Activity calls are given as the source filed them.",
  "data": [
    {"smiles": "Cc1cc(C(=O)COC(=O)c2ccccc2O)c(C)n1Cc1cccs1", "values": [
      {"measurement": "AC50", "setting": "H4 [1]", "result": "0.066 µM (active)"},
      {"measurement": "AC50", "setting": "[2]", "result": "< 0.135 µM (active)"},
      {"measurement": "EC50", "setting": "[3]", "result": "< 0.1 µM (active)"},
      {"measurement": "AC50", "setting": "[4]", "result": "8.99 µM (active)"},
      {"measurement": "EC50", "setting": "[5]", "result": "0.102 µM (active)"},
      {"measurement": "EC50", "setting": "cells", "result": "0.146 µM (active)"},
      {"measurement": "AC50", "setting": "[6]", "result": "12.2 µM (active)"},
      {"measurement": "IC50", "setting": "[7]", "result": "0.285 µM (active)"},
      {"measurement": "EC50", "setting": "[8]", "result": "< 0.1 µM (active)"},
      {"measurement": "IC50", "setting": "Tumor necrosis factor", "result": "< 0.0391 µM (active)"},
      {"measurement": "AC50", "setting": "H4 [9]", "result": "0.00332 µM (active)"},
      {"measurement": "AC50", "setting": "H4 [10]", "result": "0.013 µM (active)"},
      {"measurement": "EC50", "setting": "[11]", "result": "< 0.1 µM (active)"},
      {"measurement": "IC50", "setting": "HEK293", "result": "> 20 µM (inactive)"},
      {"measurement": "EC50", "setting": "[12]", "result": "< 0.16 µM (active)"},
      {"measurement": "IC50", "setting": "[13]", "result": "> 39.8 µM (not active)"},
      {"measurement": "EC50", "setting": "[14]", "result": "0.159 µM (active)"}
    ]},
    {"smiles": "CC1=C(O)C(O)=C(C2=C(O)C(O)=C(C)C(=O)C2=O)C(=O)C1=O", "values": [
      {"measurement": "IC50", "setting": "[15]", "result": "1.27 µM (active)"},
      {"measurement": "AC50", "setting": "ORF 73", "result": "312 µM (active)"},
      {"measurement": "IC50", "setting": "[16]", "result": "> 80 µM (inactive)"},
      {"measurement": "CC50", "setting": "Vero", "result": "31.7 µM (active)"},
      {"measurement": "IC50", "setting": "Genome polyprotein", "result": "28.3 µM (active)"},
      {"measurement": "AC50", "setting": "HeLa", "result": "61.8 µM (active)"},
      {"measurement": "IC50", "setting": "[17]", "result": "< 0.16 µM (active)"}
    ]},
    {"smiles": "CCOC(=O)c1c(NC(=O)c2cccs2)sc(CC)c1-c1cccs1", "values": [
      {"measurement": "EC50", "setting": "Streptococcus [18]", "result": "> 150 µM (not active)"},
      {"measurement": "EC50", "setting": "Streptococcus [19]", "result": "> 500 µM (not active)"},
      {"measurement": "EC50", "setting": "[20]", "result": "47.6 µM (active)"},
      {"measurement": "EC50", "setting": "Streptokinase A", "result": "9.89 µM (active)"}
    ]},
    {"smiles": "Cc1cc(C(=O)C(C)OC(=O)C2=NNC(=O)CC2)c(C)n1-c1ccc(OC(F)F)cc1", "note": "(centres undefined)", "values": [
      {"measurement": "AC50", "setting": "[21]", "result": "3.29 µM (active)"}
    ]}
  ]
}
